For test [1], the system named is Pyricularia oryzae. Description: whole plant or invertebrate. It is filed as in vivo. The settings on record: 100 is total disease control, 0 is no disease control; for Rice Blast (RB) protectant fungicide data, percent control: 300 g/ha, greenhouse; for pest or weed control at 300 g/ha: Pyricularia oryzae, topical, 144 h, read-out: Rice Blast (RB) protectant fungicide data, percent control, protectant, 300 g/ha, greenhouse.

The subject of test [2] is Sphaerotheca fuliginea. Briefly: Cucumber Powdery Mildew (CPM) protectant test in the greenhouse. It is filed as in vivo. To be noted: 100 is total disease control, 0 is no disease control; for Cucumber Powdery Mildew (CPM) protectant fungicide data, percent control: 300 g/ha; for pest or weed control at 300 g/ha: Podosphaera fuliginea, topical, 168 h, read-out: Cucumber Powdery Mildew (CPM) protectant fungicide data, percent control. In outline: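 Compounds in acetone-methanol-water (1:1:2) sprayed onto cucumber cv. "Bush Champion" (cotyledons plus one true leaf, 13 days old), dried 4 h. Inoculated 1 day later with 2×10^5 spores/ml; disease control (%) rated after 7 days in greenhouse.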

Consider `CCCCN1N=C(C)NC(c2ccccc2C)C1=O` (centres unmarked) [Compound 76], for which the “Rice Blast (RB) protectant fungicide data, percent control” value (“Rice Blast … percent control” for short) in test [1] worked out at 0 percent control. In addition, the “Cucumber Powdery Mildew (CPM) protectant fungicide data, percent control” value (“Cucumber Powdery Mildew … percent control” below) in test [2] is recorded as 25 percent control.

Take `CCCCN1N=C(c2ccccc2OCc2ccccc2)NCC1=O` [Compound 213]: the “Rice Blast … percent control” value in test [1] turned out to be 85 percent control. The “Cucumber Powdery Mildew … percent control” value in test [2] turned out to be 50 percent control.

Turning to `O=c1cnc(-c2ccccc2)n[nH]1` [Compound 243], the “Rice Blast … percent control” value in test [1] is 75 percent control. Further, the “Cucumber Powdery Mildew … percent control” value in test [2] is reported as 0 percent control.

On to `O=C1CNC(c2ccc(-c3csnn3)cc2)=NN1CC(F)(F)F` [Compound 144], for which the “Rice Blast … percent control” value in test [1] amounted to 85 percent control. Further, the “Cucumber Powdery Mildew … percent control” value in test [2] worked out at 0 percent control.

As to `CCCCN1N=C(c2cc(Cl)cc(Cl)c2)N(C(=O)OC)CC1=O` [Compound 130], the “Rice Blast … percent control” value in test [1] was 50 percent control. In addition, the “Cucumber Powdery Mildew … percent control” value in test [2] is reported as 0 percent control.

For `CCOc1ccc(C2=NN(c3ccc(Cl)cc3)C(=O)CN2)cc1` [Compound 161], the “Rice Blast … percent control” value in test [1] came to 80 percent control. The “Cucumber Powdery Mildew … percent control” value in test [2] came out at 0 percent control.

Turning to `O=C1CNC(c2ccc(-c3ccc([N+](=O)[O-])cc3)cc2)=NN1CC(F)(F)F` [Compound 142], the “Rice Blast … percent control” value in test [1] is on record as 80 percent control. The “Cucumber Powdery Mildew … percent control” value in test [2] turned out to be 0 percent control.

For the compound `CCCCCN1N=C(c2ccc(Cl)cc2)NCC1=O` [Compound 54], in test [1], the “Rice Blast … percent control” value came out at 99 percent control. Besides, the “Cucumber Powdery Mildew … percent control” value in test [2] stood at 85 percent control.

Regarding `CCOC(=O)Cn1nc(-c2cccc(C)c2)ncc1=O` [Compound 275], in test [1], the “Rice Blast … percent control” value worked out at 85 percent control. Moreover, the “Cucumber Powdery Mildew … percent control” value in test [2] is 0 percent control.

For `CCCCN1N=C(c2cc(Cl)cc(Cl)c2)NCC1=O` [Compound 104], the “Rice Blast … percent control” value in test [1] turned out to be 99 percent control. For the same compound, in test [2], the “Cucumber Powdery Mildew … percent control” value worked out at 80 percent control.

For the compound `CCCCN1N=C(c2cc(Cl)cc(Cl)c2)N(C(=O)SC)CC1=O` [Compound 129], in test [1], the “Rice Blast … percent control” value came to 50 percent control. In addition, in test [2], the “Cucumber Powdery Mildew … percent control” value is reported as 75 percent control.

Consider `C#CCN1N=C(c2cccc(C(F)(F)F)c2)NCC1=O` [Compound 88], for which the “Rice Blast … percent control” value in test [1] is on record as 100 percent control. For the same compound, in test [2], the “Cucumber Powdery Mildew … percent control” value is recorded as 50 percent control.

On to `O=C1CNC(c2ccc(Cl)cc2)=NN1c1ccccc1` [Compound 28], for which the “Rice Blast … percent control” value in test [1] was determined as 85 percent control. In addition, the “Cucumber Powdery Mildew … percent control” value in test [2] stood at 85 percent control.

As to `O=C1CNC(c2c(Cl)cncc2Cl)=NN1CC(F)(F)F` [Compound 159], in test [1], the “Rice Blast … percent control” value came out at 85 percent control. Besides, in test [2], the “Cucumber Powdery Mildew … percent control” value stood at 0 percent control.

With `CCCCN1N=C(c2cccc(Br)c2)NCC1=O` [Compound 211], in test [1], the “Rice Blast … percent control” value was 100 percent control. Besides, the “Cucumber Powdery Mildew … percent control” value in test [2] is recorded as 85 percent control.

Consider `C#CCN1N=C(c2ccc(F)c(Br)c2)NCC1=O` [Compound 218], for which the “Rice Blast … percent control” value in test [1] amounted to 98 percent control. Also, in test [2], the “Cucumber Powdery Mildew … percent control” value turned out to be 80 percent control.

Regarding `CCCCN1N=C(c2ccc(Cl)c(Cl)c2)N(C(=S)Oc2ccccc2)CC1=O` [Compound 178], the “Rice Blast … percent control” value in test [1] turned out to be 75 percent control. Besides, in test [2], the “Cucumber Powdery Mildew … percent control” value turned out to be 0 percent control.

For the compound `CCCCN1N=C(c2ccc(F)c(Br)c2)NCC1=O` [Compound 207], the “Rice Blast … percent control” value in test [1] worked out at 100 percent control. Also, in test [2], the “Cucumber Powdery Mildew … percent control” value came out at 85 percent control.

Regarding `CCCCN1N=C(c2cc3ccccc3s2)NCC1=O` [Compound 162], the “Rice Blast … percent control” value in test [1] was 95 percent control. The “Cucumber Powdery Mildew … percent control” value in test [2] was 50 percent control.

For `O=C1CNC(c2ccc(Cl)cc2)=NN1Cc1ccc(Cl)s1` [Compound 62], in test [1], the “Rice Blast … percent control” value came to 85 percent control. The “Cucumber Powdery Mildew … percent control” value in test [2] stood at 0 percent control.

In the case of `CCCCN1N=C(c2ccccc2O)NCC1=O` [Compound 83, 1-n-Butyl-3-(2-hydroxyphenyl)-4,5-dihydro-1,2,4-triazin-6-one], the results for the pest or weed control at 300 g/ha in test [1] and in test [2] were 80% and 0%, respectively.

Consider `CCCCN1N=C(c2ccc(OC)cc2)NC(C)C1=O` (centres unmarked) [Compound 38], for which the “Rice Blast … percent control” value in test [1] is reported as 0 percent control. For the same compound, the “Cucumber Powdery Mildew … percent control” value in test [2] was 50 percent control.

Consider `CCCCN1N=C(c2cccc(OC)c2)NCC1=O` [Compound 114], for which the “Rice Blast … percent control” value in test [1] stood at 75 percent control. In addition, the “Cucumber Powdery Mildew … percent control” value in test [2] came out at 0 percent control.

In the case of `CCCCN1N=C(c2ccc(Cl)c(Cl)c2)N(C(=O)Oc2ccccc2)CC1=O` [Compound 173], the “Rice Blast … percent control” value in test [1] was 50 percent control. In test [2], the “Cucumber Powdery Mildew … percent control” value amounted to 0 percent control.

Regarding `CCCCN1N=C(c2cccc(C#N)c2)NCC1=O` [Compound 175], in test [1], the “Rice Blast … percent control” value is on record as 95 percent control. In test [2], the “Cucumber Powdery Mildew … percent control” value turned out to be 0 percent control.

As for `CCCCN1N=C(c2cc(Cl)ccc2Cl)NCC1=O` [Compound 74], the “Rice Blast … percent control” value in test [1] stood at 99 percent control. Besides, the “Cucumber Powdery Mildew … percent control” value in test [2] is recorded as 0 percent control.

As for `CSc1ccc(C2=NN(c3cccc(C)c3)C(=O)CN2)cc1` [Compound 187], the “Rice Blast … percent control” value in test [1] stood at 80 percent control. Further, the “Cucumber Powdery Mildew … percent control” value in test [2] was 0 percent control.

Turning to `C#CCN1CC(=O)N(CC#C)N=C1c1ccc(F)c(Br)c1` [Compound 217], the “Rice Blast … percent control” value in test [1] stood at 85 percent control. In test [2], the “Cucumber Powdery Mildew … percent control” value was 0 percent control.

As to `C#CCN1CC(=O)N(CC#C)N=C1c1cccc(Br)c1` [Compound 226], the “Rice Blast … percent control” value in test [1] worked out at 50 percent control. Also, in test [2], the “Cucumber Powdery Mildew … percent control” value was 0 percent control.

As for `COC(=O)SN1CC(=O)N(CC(F)(F)F)N=C1c1cc(Cl)cc(Cl)c1` [Compound 14, 1-(2,2,2-trifluoroethyl)-3-(3,5-dichlorophenyl)-4-(methoxycarbonylthio)-4,5-dihydro-1,2,4-triazin-6-one], the values for the pest or weed control at 300 g/ha in test [1] and in test [2] were 100% and 85%, respectively.

Take `CCCCn1nc(-c2ccc(Cl)cc2)ncc1=O` [Compound 258]: in test [1], the “Rice Blast … percent control” value came out at 100 percent control. Besides, the “Cucumber Powdery Mildew … percent control” value in test [2] stood at 75 percent control.

Take `CCCCN1N=C(c2cccc(C3=NN(CCCC)C(=O)CN3)c2)NCC1=O` [Compound 232]: the “Rice Blast … percent control” value in test [1] came out at 100 percent control. Besides, in test [2], the “Cucumber Powdery Mildew … percent control” value turned out to be 99 percent control.

Take `C#CCN1N=C(c2cccc(F)c2)NCC1=O` [Compound 225]: the “Rice Blast … percent control” value in test [1] was 80 percent control. Moreover, the “Cucumber Powdery Mildew … percent control” value in test [2] worked out at 0 percent control.

As to `CCCCN1N=C(C)NC(c2ccc(F)cc2)C1=O` (centres unmarked) [Compound 93], in test [1], the “Rice Blast … percent control” value is 0 percent control. In addition, the “Cucumber Powdery Mildew … percent control” value in test [2] was determined as 75 percent control.

For the compound `CCCCN1N=C(c2ccc(C(F)(F)F)cc2)NCC1=O` [Compound 117], the “Rice Blast … percent control” value in test [1] came to 90 percent control. Also, the “Cucumber Powdery Mildew … percent control” value in test [2] is 0 percent control.

Regarding `CC(C)(C)OC(=O)N1CC(=O)N(C(=O)OC(C)(C)C)N=C1c1cc(Cl)cc(Cl)c1` [Compound 11, 1,4-di-(t-butoxycarbonyl)-3-(3,5-dichlorphenyl)-4,5-dihydro-1,2,4-triazin-6-one], in test [1], the “Rice Blast … percent control” value turned out to be 75 percent control. Also, the “Cucumber Powdery Mildew … percent control” value in test [2] was found to be 0 percent control.

Take `CCCCN1N=C(c2ccc3ccccc3c2)NCC1=O` [Compound 119]: the “Rice Blast … percent control” value in test [1] was determined as 99 percent control. Also, the “Cucumber Powdery Mildew … percent control” value in test [2] is recorded as 0 percent control.

For the compound `O=C1CNC(c2ccc(F)c(Br)c2)=NN1CC(F)(F)F` [Compound 208], the “Rice Blast … percent control” value in test [1] was determined as 95 percent control. Besides, the “Cucumber Powdery Mildew … percent control” value in test [2] was found to be 50 percent control.

Turning to `Cn1nc(-c2ccc(Oc3ccccc3)cc2)ncc1=O` [Compound 282], in test [1], the “Rice Blast … percent control” value was 75 percent control. The “Cucumber Powdery Mildew … percent control” value in test [2] was found to be 75 percent control.

With `CCCCn1nc(-c2cc(Cl)ccc2Cl)ncc1=O` [Compound 269], in test [1], the “Rice Blast … percent control” value stood at 99 percent control. The “Cucumber Powdery Mildew … percent control” value in test [2] was determined as 0 percent control.

Source of the values: patent publication US7494996B2 (priority 2000, dated 2009).
